Assay results from patent US20150274661A1, “INDOL-AMIDE COMPOUNDS AS BETA-AMYLOID INHBITORS” (Hoffmann-La Roche Inc., priority 2012, published 2015).

These molecules were tested on Aβ42 secretion (assay: Cellular γ-secretase assay (inhibition of Aβ42 secretion)). Conditions: Homo sapiens, 22 h, human neuroglioma H4 cells overexpressing human APP, 22 hours incubation.
Format: cell-based
Experimental: Cellular γ-Secretase Assay
The compounds were investigated in accordance with the test given hereinafter.
Human neuroglioma H4 cells overexpressing human APP were plated at 30,000 cells/well/200 μL in 96-well plates in IMDM media containing 10% FCS, […] Hygromycin B and incubated for 2 hours at 37° C., 5% CO2 prior to adding test compounds.
Compounds for testing were dissolved in 100% Me2SO yielding in a 10 mM stock solution. Typically 12 μL of these solutions were further diluted in 1000 μL of IMDM media (w/o FCS). Subsequent 1:1 dilutions gave a ten point dose response curve. 100 μL of each dilution was added to the cells in 96-well plates. Appropriate controls using vehicle only and reference compound were applied to this assay. The final concentration of Me2SO was 0.4%.
After incubation for 22 hours at 37° C., 5% CO2, 50 μL supernatant was transferred into round-bottom 96-well polypropylene plates for detection of Aβ42. 50 μL assay buffer (50 mM Tris/Cl, pH 7.4, 60 mM NaCl, 0.5% BSA, 1% TWEEN 20) was added to the wells followed by the addition of 100 μL of detection antibody (ruthenylated BAP15 0.0625 μg/mL in assay buffer). 50 μL of a premix of capture antibody (biotinylated 6E10 antibody, 1 μg/mL) and Streptavidin-coated magnetic beads (Dynal M-280, 0.125 mg/mL) were preincubated for 1 hour at room temperature before adding the assay plates. Assay plates were incubated on a shaker for 3 hours at room temperature and finally read in the Bioveris M8 Analyser according to the manufacturer's instructions (Bioveris).
IC50 values for inhibition of Aβ42 secretion were calculated by nonlinear regression fit analysis using XLfit 4.0 software (IDBS).

Row | SMILES | EC50
1 | COc1cccc(NC(=O)c2cc3cc(C4CCN(C(C)C)CC4)ccc3[nH]2)c1 [Example 25, 5-(1-Isopropyl-piperidin-4-yl)-1H-indole-2-carboxylic acid (3-methoxy-phenyl)-amide] | 2.68 µM
2 | O=C(Nc1ccc(F)cc1)c1cc2cc(C3CCN(CCc4ccccc4)CC3)ccc2[nH]1 [Example 45, 5-(1-Phenethyl-piperidin-4-yl)-1H-indole-2-carboxylic acid (4-fluoro-phenyl)-amide] | 12.9 µM
3 | CC(C)N1CCC[C@H](c2ccc3[nH]c(C(=O)Nc4cccc(F)c4)cc3c2)C1 [Example 110, 5-((R)-1-Isopropyl-piperidin-3-yl)-1H-indole-2-carboxylic acid (3-fluoro-phenyl)-amide] | 0.116 µM
4 | CC(C)N1CC=C(c2ccc3[nH]c(C(=O)Nc4cc(F)cc(F)c4)cc3c2)CC1 [Example 87, 5-(1-Isopropyl-1,2,3,6-tetrahydro-pyridin-4-yl)-1H-indole-2-carboxylic acid (3,5-difluoro-phenyl)-amide] | 1.29 µM
5 | CC(=O)N1CCCC(c2ccc3[nH]c(C(=O)Nc4cc(F)cc(F)c4)cc3c2)C1 (centres unmarked) [Example 52, 5-(1-Acetyl-piperidin-3-yl)-1H-indole-2-carboxylic acid (3,5-difluoro-phenyl)-amide] | 0.273 µM
6 | CC(C)N1CCC(c2ccc3[nH]c(C(=O)Nc4ccc(F)c(F)c4)cc3c2)CC1 [Example 28, 5-(1-Isopropyl-piperidin-4-yl)-1H-indole-2-carboxylic acid (3,4-difluoro-phenyl)-amide] | 0.852 µM
7 | O=C(Nc1cc(F)cc(F)c1)c1cc2cc(C3CCN(Cc4ccccc4)C3)ccc2[nH]1 (centres unmarked) [Example 1, 5-(1-Benzylpyrrolidin-3-yl)-N-(3,5-difluorophenyl)-1H-indole-2-carboxamide] | 0.795 µM
8 | CC(CN1CCCC1)c1ccc2[nH]c(C(=O)Nc3cccc(F)c3)cc2c1 (centres unmarked) [Example 99, N-(3-Fluorophenyl)-5-(1-(pyrrolidin-1-yl)propan-2-yl)-1H-indole-2-carboxamide] | 1.25 µM
9 | CC(C)OC(=O)N1CCC(c2ccc3[nH]c(C(=O)Nc4cncc(F)c4)cc3c2)C1 (centres unmarked) [Example 77, isopropyl 3-(2-(5-fluoropyridin-3-ylcarbamoyl)-1H-indol-5-yl)pyrrolidine-1-carboxylate] | 3.76 µM
10 | O=C(Nc1cc(F)cc(F)c1)c1cc2cc(C3CCCN(C(=O)C4CC4)C3)ccc2[nH]1 (centres unmarked) [Example 54, 5-(1-Cyclopropanecarbonyl-piperidin-3-yl)-1H-indole-2-carboxylic acid (3,5-difluoro-phenyl)-amide] | 0.403 µM
11 | CC(C)N1CCC(c2ccc3[nH]c(C(=O)Nc4cc(F)cc(F)c4)cc3c2)C1 (centres unmarked) [Example 11, 5-(1-Isopropyl-pyrrolidin-3-yl)-1H-indole-2-carboxylic acid (3,5-difluoro-phenyl)-amide] | 0.321 µM
12 | O=C(Nc1cccc(F)c1)c1cc2cc(C3CCCN(CC4CCCO4)C3)ccc2[nH]1 (centres unmarked) [Example 68, N-(3-Fluorophenyl)-5-(1-((tetrahydrofuran-2-yl)methyl)piperidin-3-yl)-1H-indole-2-carboxamide] | 0.777 µM
13 | COCC(=O)N1CCC(c2ccc3[nH]c(C(=O)Nc4cncc(F)c4)cc3c2)C1 (centres unmarked) [Example 82, N-(5-Fluoropyridin-3-yl)-5-(1-(2-methoxyacetyl)pyrrolidin-3-yl)-1H-indole-2-carboxamide] | 1.93 µM
14 | CC(=O)N1CCC(C(C)c2ccc3[nH]c(C(=O)Nc4cc(F)cc(F)c4)cc3c2)C1 (centres unmarked) [Example 95, 5-(1-(1-Acetylpyrrolidin-3-yl)ethyl)-N-(3,5-difluorophenyl)-1H-indole-2-carboxamide] | 2.48 µM
15 | O=C(Nc1cc(F)cc(F)c1)c1cc2cc(/C=C/N3C(=O)[C@@H]4CC[C@H]3C4)ccc2[nH]1 [Example 101, 5-[(E)-2-((1S,4R)-3-Oxo-2-aza-bicyclo[2.2.1]hept-2-yl)-vinyl]-1H-indole-2-carboxylic acid (3,5-difluoro-phenyl)-amide] | 3.83 µM
16 | N#CCN1CC[C@@H](c2ccc3[nH]c(C(=O)Nc4cccc(F)c4)cc3c2)C1 [Example 109, (S)-5-(1-(Cyanomethyl)pyrrolidin-3-yl)-N-(3-fluorophenyl)-1H-indole-2-carboxamide] | 0.472 µM
17 | CC(C)C(=O)N1CC[C@@H](c2ccc3[nH]c(C(=O)Nc4cc(F)cc(F)c4)cc3c2)C1 [Example 106, 5-((S)-1-Isobutyryl-pyrrolidin-3-yl)-1H-indole-2-carboxylic acid (3,5-difluoro-phenyl)-amide] | 0.889 µM

Row | SMILES | EC50
18 | CC(C)N1CCN(c2ccc3[nH]c(C(=O)Nc4ccc(F)c(F)c4)cc3c2)CC1 [Example 63, 5-(4-Isopropyl-piperazin-1-yl)-1H-indole-2-carboxylic acid (3,4-difluoro-phenyl)-amide] | 0.614 µM
19 | CC(C)C(=O)N1CC[C@H](c2ccc3[nH]c(C(=O)Nc4cc(F)cc(F)c4)cc3c2)C1 [Example 105, 5-((R)-1-Isobutyryl-pyrrolidin-3-yl)-1H-indole-2-carboxylic acid (3,5-difluoro-phenyl)-amide] | 1.21 µM
20 | COCC(=O)N1CCCC(c2ccc3[nH]c(C(=O)Nc4cc(F)cc(F)c4)cc3c2)C1 (centres unmarked) [Example 57, 5-[1-(2-Methoxy-acetyl)-piperidin-3-yl]-1H-indole-2-carboxylic acid (3,5-difluoro-phenyl)-amide] | 0.668 µM
21 | CC(CCN1CCCCC1)c1ccc2[nH]c(C(=O)Nc3cc(F)cc(F)c3)cc2c1 (centres unmarked) [Example 98, N-(3,5-Difluorophenyl)-5-(4-(piperidin-1-yl)butan-2-yl)-1H-indole-2-carboxamide] | 1.04 µM
22 | CC(c1ccc2[nH]c(C(=O)Nc3cc(F)cc(F)c3)cc2c1)C1CCN(CC(F)(F)F)C1 (centres unmarked) [Example 96, N-(3,5-Difluorophenyl)-5-(1-(1-(2,2,2-trifluoroethyl)pyrrolidin-3-yl)ethyl)-1H-indole-2-carboxamide] | 7.72 µM
23 | O=C(Nc1cncc(F)c1)c1cc2cc(C3CCN(S(=O)(=O)c4ccc(F)cc4)C3)ccc2[nH]1 (centres unmarked) [Example 84, 5-(1-(4-Fluorophenylsulfonyl)pyrrolidin-3-yl)-N-(5-fluoropyridin-3-yl)-1H-indole-2-carboxamide] | 4.86 µM
24 | O=C(Nc1ccc(F)c(F)c1)c1cc2cc(C3CCCOC3)ccc2[nH]1 (centres unmarked) [Example 86, 5-(Tetrahydro-pyran-3-yl)-1H-indole-2-carboxylic acid (3,4-difluoro-phenyl)-amide] | 0.99 µM
25 | O=C(Nc1cccc(F)c1)c1cc2cc(C3CCCN(C4CC4)C3)ccc2[nH]1 (centres unmarked) [Example 72, 5-(1-Cyclopropylpiperidin-3-yl)-N-(3-fluorophenyl)-1H-indole-2-carboxamide] | 1.11 µM
26 | C=C(c1ccc2[nH]c(C(=O)Nc3cc(F)cc(F)c3)cc2c1)C1CCN(Cc2ccccc2)C1 (centres unmarked) [Example 91, 5-(1-(1-Benzylpyrrolidin-3-yl)vinyl)-N-(3,5-difluorophenyl)-1H-indole-2-carboxamide] | 1.49 µM
27 | O=C(Nc1cccc(F)c1)c1cc2cc(C3CC(=O)N(Cc4ccccc4)C3=O)ccc2[nH]1 (centres unmarked) [Example 17, 5-(1-Benzyl-2,5-dioxopyrrolidin-3-yl)-N-(3-fluorophenyl)-1H-indole-2-carboxamide] | 8.46 µM
28 | O=C(Nc1cc(F)cc(F)c1)c1cc2cc(C3CCCNC3)ccc2[nH]1 (centres unmarked) [Example 62, 5-Piperidin-3-yl-1H-indole-2-carboxylic acid (3,5-difluoro-phenyl)-amide] | 0.354 µM
29 | COc1ccc(NC(=O)c2cc3cc(C4CCN(C(C)C)CC4)ccc3[nH]2)cc1 [Example 26, 5-(1-Isopropyl-piperidin-4-yl)-1H-indole-2-carboxylic acid (4-methoxy-phenyl)-amide] | 10.9 µM
30 | CC(C)N1CCC(c2ccc3[nH]c(C(=O)Nc4cncc(F)c4)cc3c2)C1 (centres unmarked) [Example 76, N-(5-Fluoropyridin-3-yl)-5-(1-isopropylpyrrolidin-3-yl)-1H-indole-2-carboxamide] | 0.796 µM
31 | CC(C)N1CCC(c2ccc3[nH]c(C(=O)Nc4ccccc4F)cc3c2)CC1 [Example 24, 5-(1-Isopropyl-piperidin-4-yl)-1H-indole-2-carboxylic acid (2-fluoro-phenyl)-amide] | 19.4 µM
32 | CC(c1ccc2[nH]c(C(=O)Nc3cc(F)cc(F)c3)cc2c1)C1CCN(CC#N)C1 (centres unmarked) [Example 94, 5-(1-(1-(Cyanomethyl)pyrrolidin-3-yl)ethyl)-N-(3,5-difluorophenyl)-1H-indole-2-carboxamide] | 1.34 µM
33 | CC(=O)N1CC[C@@H]([C@H](C)c2ccc3[nH]c(C(=O)Nc4cc(F)cc(F)c4)cc3c2)C1 [Example 122, 5-((S)-1-((S)-1-Acetylpyrrolidin-3-yl)ethyl)-N-(3,5-difluorophenyl)-1H-indole-2-carboxamide] | 2.07 µM
34 | CC(C)N1CCC(c2ccc3[nH]c(C(=O)Nc4cccc(C(F)(F)F)c4)cc3c2)CC1 [Example 22, 5-(1-Isopropyl-piperidin-4-yl)-1H-indole-2-carboxylic acid (3-trifluoromethyl-phenyl)-amide] | 2.27 µM

Same assay, conditions: human neuroglioma H4 cells overexpressing human APP, 22 hours incubation

Row | SMILES | EC50
35 | CC(C)S(=O)(=O)N1CCC(c2ccc3[nH]c(C(=O)Nc4cc(F)cc(F)c4)cc3c2)C1 (centres unmarked) [Example 107] | 0.628 µM
